# From patent US20160274108A1, “DIAGNOSTIC METHODS FOR PAR4 ANTAGONIST THERAPY” (BRISTOL-MYERS SQUIBB COMPANY, priority 2013, published 2016)
# Experiments:
# [1] = target: T1, protease-activated receptor type 4 (PAR4) (Homo sapiens, UniProt Q96RI0); details: abstract of Lee et al., J. Med. Chem., 44(22):3746-3749 (2001); cited from earlier work
# T1 sequence (Q96RI0 18-385): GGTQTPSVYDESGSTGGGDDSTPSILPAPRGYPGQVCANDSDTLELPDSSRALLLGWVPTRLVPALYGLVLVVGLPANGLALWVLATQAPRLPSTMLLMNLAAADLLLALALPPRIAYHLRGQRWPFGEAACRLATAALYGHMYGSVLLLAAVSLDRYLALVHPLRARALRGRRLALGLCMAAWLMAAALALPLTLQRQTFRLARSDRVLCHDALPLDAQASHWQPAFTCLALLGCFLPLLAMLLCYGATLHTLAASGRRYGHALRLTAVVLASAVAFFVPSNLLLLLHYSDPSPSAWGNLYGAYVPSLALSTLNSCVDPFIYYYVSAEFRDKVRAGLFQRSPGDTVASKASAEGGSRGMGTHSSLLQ
# [2] = test system: platelets; assay: Platelet activation by whole blood flow cytometry: fibrinogen binding; type: cell-based, human; details: PAR1 1 μM final, 501 healthy subjects
# Description: (§1) PAR1 and PAR4 agonists were supplied as freeze dried peptides and reconstituted with HEPES buffered saline [HBS, 0.14M NaCl, 5 mM KCl, 1 mM MgSO4, 10 mM HEPES (sodium salt), pH 7.4] to 1 mM concentrations prior to storing in single use aliquots at −80° C. Immediately prior to use PAR1 was thawed and diluted in HBS to 10 μM as a working concentration to give a final assay concentration of 1 μM. Similarly PAR4 was diluted to 100 μM working concentration to give a final assay concentration of 10 μM.
# (§2) The antibodies used for flow cytometry were: rabbit FITC-anti-fibrinogen (Dako Ltd, Ely, UK), PE-anti-CD62P and a relevant PE-isotype control (Bristol Institute for Transfusion Science, Bristol, UK). HBS was used for all dilutions.
# (§3) Blood was processed within 15 minutes of venesection, with 5 μL of citrated whole blood containing aspirin (100 μM) and hirudin (10 U/mL) being added to 45 μL of HBS containing apyrase (4 U/mL), either FITC-anti-fibrinogen or PE anti-CD62P, and either PAR1 (1 μM final concentration) or PAR4 (10 μM final concentration). […] Platelets were identified by light scatter and results were recorded as the percentage of platelets positive for the relevant activation marker. […]
# [3] = test system: platelets; assay: Platelet activation by whole blood flow cytometry: P-selectin (CD62P) expression; type: cell-based, human; details: PAR1 1 μM final, 501 healthy subjects
# Description: as §1, §2, §3
Compound,inhibition of PAR4-dependent platelet activation [1],"fibrinogen binding, % positive platelets, median [2] [%]","P-selectin expression, % positive platelets, median [3] [%]"
CCOC(=O)c1ccc(-c2nn(Cc3ccccc3)c3ccccc23)cc1,selective and potent inhibitor,,
"PAR1: PAR1 agonist, freeze dried peptide supplied by Bristol-Myers Squibb; Example 2 control is Compound A, SFFLRR (SEQ ID NO: 39)",,19.7,86.8
